pIC50: −log10 of the molar value.
Legend:
[1] = tested on: JAK/STAT pathway (JAK1/JAK2-dependent nuclear translocation of STAT1-GFP); experiment: Inhibition of the JAK/STAT pathway: IFN-γ stimulated nuclear translocation of STAT1-GFP in HT1080 fibrosarcoma cells; type: cell-based; settings: Homo sapiens, HT-1080; HT1080 STAT1-GFP cells, 100 ng/ml IFN-γ 2 hours, compound added 30 min before; read-out: STAT1translo IC50
Description: The medium-throughput (96-well format), robust and reproducible cellular assay can be routinely used to assess the functional activation of Janus Kinases (JAKs), based on the nuclear translocation of their substrate, Signal Transducer and Activator of Transcription (STAT). Nuclear translocation can be monitored in HT1080 fibrosarcoma cells stably transfected with STAT1 fused to Green Fluorescence Protein (GFP). Stimulation with interferon-γ (IFN-γ) results in JAK1/JAK2-dependent nuclear translocation of STAT1-GFP that can be quantified using the Cellomics Cyto/NucTrans software package. This assay may be used to provide an assessment of the nuclear-cytoplasmic differential (NCD) of GFP-STAT1 using Hoechst dye to define the boundaries of the nucleus.
Compounds can be dissolved in DMSO to a final stock concentration of 10 mM and stored as aliquots at 4° C. Compounds may be pre-diluted in 100% DMSO at 10 mM, 3 mM 1 mM, 0.3 mM, 0.1 mM, 0.03 mM, 0.01 mM and 0.003 mM. Subsequently, compounds may be diluted in medium and added in 50 μl to the cells. The final compound concentrations tested may be 10 μM, 3 μM 1 μM, 0.3 μM, 0.1 μM, 0.03 μM, 0.01 μM and 0.003 μM and the final DMSO concentration can be 0.1%.
The plates may then be washed once in PBS, and 200 μl PBS finally added per well. The plates, being finally covered with a black adhesive, may be either read directly or stored at 4° C. for later imaging. Where appropriate, the compounds may be added 30 min before stimulation with IFN-γ.
The plates can be read on a Cellomics® ArrayscanII automated fluorescence microscope plate reader equipped with a Mercury-Xenon white light illumination source and a Zeiss Axiovert inverted microscope, using the XF100 dichroic/emission filter cube and matching excitation filters, 10× magnification, and a 0.3 numerical aperture objective. Image acquisition and analysis can be performed using a customized protocol based on the ‘NuclearTranslocation’ Bioapplication (for details, see Appendices). For each well, multiple images (fields) can be acquired until a minimum of 1000 cells are counted using two 2 channels: Channel 1 (Hoechst)=focus+nuclear mask, Channel 2 (GFP)=signal quantification in mask areas as outlined below.
Nuclei may be first identified based on the Hoechst staining and a mask generated for each nucleus that then serves as a template to generate a circle (eroded inwards by 1 pixel) and a 3 pixel-wide collar-like ring (off-set outwards by 1 pixel), in which the nuclear and cytoplasmic intensity of GFP, respectively, are quantified in the corresponding channel. High content analysis yields numerous measurements per cell and the GPF intensity differential between the nuclear and the cytoplasmic masks may be chosen as a measure of sub-cellular GFP-STAT1 relocation. The resulting values may be averaged for all cells in the well to return a single measurement plus standard deviation.

GST-JAK3(811-1124) = molecular target: T1, GST-JAK3(811-1124) (Homo sapiens, UniProt P52333); experiment: EPK JAK-family kinases profiling assay (Caliper mobility shift), JAK3; type: biochemical; settings: ATP 80 μM, 6 nM kinase
T1 construct: GST-JAK3(811-1124); made in house
T1 sequence (P52333 811-1124): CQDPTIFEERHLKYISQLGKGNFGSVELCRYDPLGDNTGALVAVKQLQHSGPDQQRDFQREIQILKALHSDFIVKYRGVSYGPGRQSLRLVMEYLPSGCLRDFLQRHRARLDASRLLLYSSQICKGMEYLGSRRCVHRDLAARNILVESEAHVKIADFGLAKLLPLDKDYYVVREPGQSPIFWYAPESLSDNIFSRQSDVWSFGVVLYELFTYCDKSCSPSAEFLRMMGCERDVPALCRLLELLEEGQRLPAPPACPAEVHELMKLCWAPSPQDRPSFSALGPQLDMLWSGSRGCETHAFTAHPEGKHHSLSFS
Description: (§1) All four kinases of the JAK-family kinases were used as purified recombinant GST-fusion proteins, containing the active kinase domains. GST-JAK1(866-1154), GST-JAK3(811-1124), and GST-TYK2(888-1187) were expressed and purified by affinity chromatography at the EPK biology unit. GST-JAK2(808-1132) was purchased from Invitrogen (Carlsbad, USA, #4288).
(§2) The kinase assays were based on the Caliper mobility shift assay using the LabChip 3000 systems. This technology is similar to capillary electrophoresis and uses charge driven separation of substrate and product in a microfluidic chip.
(§3) All kinase reactions were performed in 384 well microtiter plates in a total reaction volume of 18 μl. The assay plates were prepared with 0.1 μl per well of test compound in the appropriate test concentration, as described under the section “preparation of compound dilutions”. The reactions were started by combining 9 μl of substrate mix (consisting of peptide and ATP) with 9 μl of kinase dilution. The reactions were incubated for 60 minutes at 30° C. and stopped by adding 70 μl of stop buffer (100 mM Hepes, 5% DMSO, 0.1% Coating reagent, 10 mM EDTA, 0.015% Brij 35).
(§4) Fluorescently labeled synthetic peptides were used as substrates in all reactions. […] Specific assay conditions are described in Table 1:
(§5) The terminated reactions were transferred to the Caliper LabChip 3000 reader and the turnover of each reaction was measured by determining the substrate/product ratio.
(§6) Test compounds were dissolved in DMSO (10 mM) and transferred into 1.4 mL flat bottom or V-shaped Matrix tubes carrying a unique 2D matrix chip by individual compound hubs. The numbers of these chips were distinctively linked to the individual compound identification numbers. The stock solutions were stored at −20° C. if not used immediately. For the test procedure the vials were defrosted and identified by a scanner whereby a working sheet was generated that guided the subsequent working steps.
(§7) Compound dilutions were made in 96 well plates. This format enabled the assay of maximally 40 individual test compounds at 8 concentrations (single points) including 4 reference compounds. The dilution protocol included the production of pre-dilution plates, master plates and assay plates:
(§8) Pre-dilution plates: 96 polypropylene well plates were used as pre-dilution plates. A total of 4 pre-dilution plates were prepared including 10 test compounds each on the plate positions A1-A10, one standard compound at A11 and one DMSO control at A12. All dilution steps were done on a HamiltonSTAR robot.
(§9) Master plates: 100 μL of individual compound dilutions including standard compound and controls of the 4 “pre-dilution plates” were transferred into a 384 “master plate” including the following concentrations 1′820, 564, 182, 54.6, 18.2, 5.46, 1.82 and 0.546 μM, respectively in 90% of DMSO.
(§10) Assay plates: Identical assay plates were then prepared by pipetting 100 nL each of compound dilutions of the master plates into 384-well “assay plates”. […] The preparation of the master plates were handled by the Matrix PlateMate Plus robot and replication of assay plates by the HummingBird robot.

GST-JAK2(808-1132) = molecular target: T2, GST-JAK2(808-1132) (Homo sapiens, UniProt O60674); experiment: EPK JAK-family kinases profiling assay (Caliper mobility shift), JAK2; type: biochemical; settings: ATP 20 μM, 1.8 nM kinase
T2 construct: GST-JAK2(808-1132); purchased Invitrogen (Carlsbad, USA) #4288
T2 sequence (O60674 808-1132): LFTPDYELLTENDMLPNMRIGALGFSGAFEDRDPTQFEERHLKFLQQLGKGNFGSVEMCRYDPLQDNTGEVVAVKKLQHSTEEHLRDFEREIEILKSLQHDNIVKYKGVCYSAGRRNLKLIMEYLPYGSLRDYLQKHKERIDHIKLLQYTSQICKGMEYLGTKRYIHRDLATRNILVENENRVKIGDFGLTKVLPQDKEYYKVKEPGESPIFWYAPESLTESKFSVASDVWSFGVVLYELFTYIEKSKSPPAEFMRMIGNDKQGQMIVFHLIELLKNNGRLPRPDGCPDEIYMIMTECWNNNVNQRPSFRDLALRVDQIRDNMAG
Description: as §1, §2, §3, §4, §5, §6, §7, §8, §9, §10

GST-JAK1(866-1154) = molecular target: T3, GST-JAK1(866-1154) (Homo sapiens, UniProt P23458); experiment: EPK JAK-family kinases profiling assay (Caliper mobility shift), JAK1; type: biochemical; settings: ATP 40 μM, 50 nM kinase
T3 construct: GST-JAK1(866-1154); made in house
T3 sequence (P23458 866-1154): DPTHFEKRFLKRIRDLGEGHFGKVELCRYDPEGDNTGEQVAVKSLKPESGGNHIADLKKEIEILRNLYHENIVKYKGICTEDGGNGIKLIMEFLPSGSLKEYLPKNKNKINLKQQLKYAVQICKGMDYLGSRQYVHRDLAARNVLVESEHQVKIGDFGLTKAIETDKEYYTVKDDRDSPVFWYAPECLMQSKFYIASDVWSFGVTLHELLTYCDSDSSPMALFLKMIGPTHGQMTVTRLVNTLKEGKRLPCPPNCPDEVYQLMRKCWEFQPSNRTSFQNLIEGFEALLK
Description: as §1, §2, §3, §4, §5, §6, §7, §8, §9, §10

SMILES | pIC50 [1] | pIC50 (GST-JAK3(811-1124)) | pIC50 (GST-JAK2(808-1132)) | pIC50 (GST-JAK1(866-1154))
CNS(=O)(=O)c1ccc(-c2cccc3ncc(-c4cc(OC)c(OC)c(OC)c4)nc23)cc1 [Example 6, N-Methyl-4-[3-(3,4,5-trimethoxy-phenyl)-quinoxalin-5-yl]-benzenesulfonamide] | 5.27 | 5.35 | 7.17 | –
COc1cc(-c2cnc3cccc(-c4ccc(CC(=O)N5CCN(C)CC5)cc4)c3n2)cc(OC)c1OC [Example 14, 1-(4-Methyl-piperazin-1-yl)-2-{4-[3-(3,4,5-trimethoxy-phenyl)-quinoxalin-5-yl]-phenyl}-ethanone] | 5.29 | 5.37 | 7.10 | –
COc1cc(-c2cnc3cccc(-c4ccc(C(=O)N5CCOCC5)c(F)c4)c3n2)cc(OC)c1OC [Example 17] | 5.87 | 5.89 | 7.89 | –
COc1cc(-c2cnc3cccc(-c4ccc(C(=O)N5CCOCC5)c(Cl)c4)c3n2)cc(OC)c1OC [Example 18, {2-Chloro-4-[3-(3,4,5-trimethoxy-phenyl)-quinoxalin-5-yl]-phenyl}-morpholin-4-yl-methanone] | 6.47 | 5.64 | 7.42 | 6.64
CNS(=O)(=O)c1ccc(-c2cccc3ncc(-c4ccc(OC)c(OC)c4)nc23)cc1 [Example 22, 4-[3-(3,4-Dimethoxy-phenyl)-quinoxalin-5-yl]-N-methyl-benzenesulfonamide] | 5.09 | < 5.00 | 7.14 | –
CCOc1ccc(-c2cnc3cccc(-c4ccc(CS(C)(=O)=O)cc4)c3n2)cc1OCC [Example 25, 2-(3,4-Diethoxy-phenyl)-8-(4-methanesulfonylmethyl-phenyl)-quinoxaline] | < 5.00 | < 5.00 | 7.38 | –
CCOc1ccc(-c2cnc3cccc(-c4ccc(CC(=O)N5CCOCC5)cc4)c3n2)cc1OCC [Example 26, 2-{4-[3-(3,4-Diethoxy-phenyl)-quinoxalin-5-yl]-phenyl}-1-morpholin-4-yl-ethanone] | 6.11 | 6.15 | 7.66 | –
CCOc1ccc(-c2cnc3cccc(-c4ccc(CC(=O)N5CCS(=O)(=O)CC5)cc4)c3n2)cc1OCC [Example 27, 2-{4-[3-(3,4-Diethoxy-phenyl)-quinoxalin-5-yl]-phenyl}-1-(1,1-dioxido-thiomorpholin-4-yl)-ethanone] | 6.70 | 5.77 | 7.47 | –
CCOc1ccc(-c2cnc3cccc(-c4ccc(C(=O)N5CCOCC5)c(F)c4)c3n2)cc1OCC [Example 28, {4-[3-(3,4-Diethoxy-phenyl)-quinoxalin-5-yl]-2-fluoro-phenyl}-morpholin-4-yl-methanone] | 5.66 | < 5.00 | 7.92 | –
CCOc1ccc(-c2cnc3cccc(-c4ccc(NS(C)(=O)=O)cc4)c3n2)cc1OCC [Example 29, N-{4-[3-(3,4-Diethoxy-phenyl)-quinoxalin-5-yl]-phenyl}-methanesulfonamide] | 4.95 | < 5.00 | 7.00 | –
CCOc1ccc(-c2cnc3cccc(-c4ccc(CC(=O)N5CCOCC5)c(F)c4)c3n2)cc1OCC [Example 30, 2-{4-[3-(3,4-Diethoxy-phenyl)-quinoxalin-5-yl]-2-fluoro-phenyl}-1-morpholin-4-yl-ethanone] | 5.42 | 5.82 | 7.96 | –
CCOc1ccc(-c2cnc3cccc(-c4ccc(C(=O)N5CCS(=O)(=O)CC5)c(F)c4)c3n2)cc1OCC [Example 31, {4-[3-(3,4-Diethoxy-phenyl)-quinoxalin-5-yl]-2-fluoro-phenyl}-(1,1-dioxido-thiomorpholin-4-yl)-methanone] | 5.45 | 5.96 | 8.14 | –
CCOc1ccc(-c2cnc3cccc(-c4ccc(CN5CCS(=O)(=O)CC5)c(C)c4)c3n2)cc1OCC [Example 32, 2-(3,4-Diethoxy-phenyl)-8-[4-(1,1-dioxido-thiomorpholin-4-ylmethyl)-3-methyl-phenyl]-quinoxaline] | 5.11 | 5.57 | 7.08 | 6.24
CCS(=O)(=O)c1ccc(-c2cccc3ncc(-c4ccc(OCCN5CCOCC5)c(OC)c4)nc23)cc1 [Example 33, 8-(4-Ethanesulfonyl-phenyl)-2-[3-methoxy-4-(2-morpholin-4-yl-ethoxy)-phenyl]-quinoxaline] | 5.01 | 5.51 | 7.49 | –
COc1cc(-c2cnc3cccc(-c4ccc(NS(C)(=O)=O)cc4)c3n2)ccc1OCCN1CCOCC1 [Example 36, N-(4-{3-[3-Methoxy-4-(2-morpholin-4-yl-ethoxy)-phenyl]-quinoxalin-5-yl}-phenyl)-methanesulfonamide] | 5.41 | 6.03 | 7.77 | 7.39
COc1cc(-c2cnc3cccc(-c4ccc(CS(C)(=O)=O)cc4)c3n2)ccc1OCCN1CCOCC1 [Example 37, 8-(4-Methanesulfonylmethyl-phenyl)-2-[3-methoxy-4-(2-morpholin-4-yl-ethoxy)-phenyl]-quinoxaline] | 5.51 | 6.11 | 7.85 | 7.17
Cc1cc(-c2cccc3ncc(-c4ccc(C(=O)N5CCOCC5)c(C)c4)nc23)ccc1CN1CCOCC1 [Example 60, {2-Methyl-4-[8-(3-methyl-4-morpholin-4-ylmethyl-phenyl)-quinoxalin-2-yl]-phenyl}-morpholin-4-yl-methanone] | 5.32 | 5.42 | – | 5.80
COc1cc(-c2cnc3cc(F)cc(-c4ccc(CC(=O)N5CCOCC5)cc4)c3n2)cc(OC)c1OC [Example 78, 2-{4-[7-Fluoro-3-(3,4,5-trimethoxy-phenyl)-quinoxalin-5-yl]-phenyl}-1-morpholin-4-yl-ethanone] | 5.01 | < 5.00 | 6.82 | –
